Molecules are shown by their SMILES. Structures can show the parent of a compound that is named as a salt.

For this test, the target named is T1, RORc ligand binding domain (Homo sapiens, UniProt P51449).
T1 sequence (P51449 269-508 limits assumed): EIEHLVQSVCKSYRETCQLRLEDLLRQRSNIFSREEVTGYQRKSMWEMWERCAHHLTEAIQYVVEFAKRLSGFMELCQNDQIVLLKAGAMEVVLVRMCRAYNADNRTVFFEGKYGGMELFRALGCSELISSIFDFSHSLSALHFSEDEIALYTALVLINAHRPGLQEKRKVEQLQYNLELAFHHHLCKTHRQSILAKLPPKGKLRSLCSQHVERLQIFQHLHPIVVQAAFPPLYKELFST
In words: In vitro RORc ligand binding assay (25-[3H]hydroxycholesterol displacement).
Description: This assay was used to determine a compound's potency in inhibiting activity of RORc by determining, Kiapp, IC50, or percent inhibition values.
On day of the assay, 100 uL of 0.05% CHAPS (in deionized H2O) was added to all wells of the GFB Unifilter plate and allowed soak for 1 h. A wash buffer of 50 mM HEPES (pH 7.4), 150 mM NaCl, and 5 mM MgCl2 was prepared to wash the filter plate. To prepare an assay buffer, BSA was added to the wash buffer to reach 0.01% and DTT was added to reach 1 mM.
The 20× compound stocks were diluted in DMSO with Assay Buffer 4-fold to reach 5× the final test concentration in 25% DMSO (10 uL compound+30 uL Assay Buffer). Solutions were mixed by aspiration several times with a pipette set on 50 uL volume.
For two point screening, 10 mM stock compound solutions were diluted in DMSO to obtain 200 uM (20× the high test concentration) and then diluted 10-fold further to reach 20 uM (20× the low test concentration). The 20× stocks were diluted 4-fold with Assay Buffer (10 uL compound+30 uL Assay Buffer) to reach 5× the test concentrations (50 uM and 5 uM) and 10 uL were added to two assay plates for the duplicate wells. With each concentration tested on 2 plates, each set of 80 compounds used 4 assay plates (1 uM and 10 uM, with n=2).
Nonspecific Binding (NSB) Samples, Total Binding (TB) Samples and No Receptor (No R) Samples
For 25-hydroxycholesterol in 25% DMSO/75% Assay Buffer; 10 uL per well was used for NSB samples. Wells for Total Binding and No Receptor sample determination contained 10 uL of 25% DMSO/75% Assay Buffer per well.
Radioligand 25-[^3H]Hydroxycholesterol) Preparation
Add 20 uL to all wells to reach 6 nM final in the assay.
Stock receptor solution was diluted in assay buffer to obtain 1.5 ug/mL in Assay Buffer. 20 uL was added to all wells. For No R samples, 20 uL Assay Buffer was substituted for receptor solution.
Sample addition to Plates and Incubation
Assay plates were 96-well polypropylene V-bottom plates. […] 10 uL of 25% DMSO/75% Assay Buffer was added to Total Binding or No Receptor wells. 10 uL of 5 uM 25-hydroxycholesterol in 25% DMSO/75% Assay Buffer was added to NSB wells. […] 20 uL of 1.5 ug/mL RORc receptor was added to wells (or 40 uL Assay Buffer to No R wells). Following addition to the wells, the plates were incubated 3 h at 25° C.
Using a Packard Filtermate Harvester, the filter plate were washed 4 times following transfer of the incubated samples. Plates were dry-filtered completely (2 h at 50° C. or overnight at room temperature). 50 uL Microscint 0 was added to all wells and read on Topcount protocol Inverted.
Final concentrations were as follows: 50 mM HEPES buffer (pH 7.4); 150 mM NaCl; 1 mM DTT; 5 mM MgCl2; 0.01% BSA; 5% DMSO; 0.6 ug/mL RORc receptor; 6 nM 25-[^3H]hydroxycholesterol. For NSB wells, 1 uM 25-hydroxycholesterol was also present.
What is called IC50 is the midpoint of a concentration-inhibition curve. A higher IC50 goes with a need for much substance. With `C[C@H]1CC[C@H](c2ccccc2)S(=O)(=O)N1Cc1cc(F)c(C2(c3nnc[nH]3)CC(F)(F)C2)cc1F` [Example 114, (3S,6R)-2-[[4-[3,3-difluoro-1-(4H-1,2,4-triazol-3-yl)cyclobutyl]-2,5-difluoro-phenyl]methyl]-3-methyl-6-phenyl-thiazinane 1,1-dioxide], the 50% inhibitory concentration (IC50) came out at 3.6 nM.

On to `CO[C@H]1C[C@@](c2n[nH]c(=O)o2)(c2cc(F)c(CN3[C@@H](C)CC[C@H](c4ccccc4)S3(=O)=O)cc2F)C1` [Example 154, trans 5-[1-[2,5-difluoro-4-[[(3S,6R)-3-methyl-1,1-dioxo-6-phenyl-thiazinan-2-yl]methyl]phenyl]-3-methoxy-cyclobutyl]-3H-1,3,4-oxadiazol-2-one], for which the IC50 was 6.2 nM. For `C[C@H]1CC[C@H](c2ccccc2)S(=O)(=O)N1Cc1ccc(C2(NCc3ncc[nH]3)CCOCC2)cc1F` [Example 64, 4-[3-fluoro-4-[[(3S,6R)-3-methyl-1,1-dioxo-6-phenyl-thiazinan-2-yl]methyl]phenyl]-N-(1H-imidazol-2-ylmethyl)tetrahydropyran-4-amine], the IC50 is 10.1 nM.

As to `C[C@H]1CC[C@H](c2ccccc2)S(=O)(=O)N1Cc1ccc(C2(c3noc(CO)n3)CCOCC2)cc1F` [Example 29, [3-[4-[3-fluoro-4-[[(3S,6R)-3-methyl-1,1-dioxo-6-phenyl-thiazinan-2-yl]methyl]phenyl]tetrahydropyran-4-yl]-1,2,4-oxadiazol-5-yl]methanol], the IC50 stood at 63.6 nM. Compound `C[C@H]1CC[C@H](c2ccccc2)S(=O)(=O)N1Cc1ccc(C2(NCc3cc[nH]n3)CCOCC2)cc1F` [Example 63, 4-[3-fluoro-4-[[(3S,6R)-3-methyl-1,1-dioxo-6-phenyl-thiazinan-2-yl]methyl]phenyl]-N-(1H-pyrazol-3-ylmethyl)tetrahydropyran-4-amine] had an IC50 of 6.7 nM.

For the compound `Cc1cc(NC(=O)C2(c3ccc(CN4[C@@H](C)CC[C@H](c5ccccc5)S4(=O)=O)c(F)c3)CCOCC2)n(C)n1` (stereo in doubt) [Example 14, N-(2,5-dimethylpyrazol-3-yl)-4-[3-fluoro-4-[[(3S,6R)-3-methyl-1,1-dioxo-6-phenyl-thiazinan-2-yl]methyl]phenyl]tetrahydropyran-4-carboxamide], the concentration for half-maximal inhibition (IC50) is 63.6 nM. Compound `C[C@H]1CC[C@H](c2ccccc2)S(=O)(=O)N1Cc1cc(F)c([C@]2(c3cn(C)c(=O)o3)C[C@](C)(O)C2)cc1F` [Example 159, 5-[1-[2,5-difluoro-4-[[(3S,6R)-3-methyl-1,1-dioxo-6-phenyl-thiazinan-2-yl]methyl]phenyl]-3-hydroxy-3-methyl-cyclobutyl]-3-methyl-oxazol-2-one] gave an IC50 of 2.8 nM. As for `C[C@H]1CC[C@H](c2ccccc2)S(=O)(=O)N1Cc1cc(F)c([C@]2(c3n[nH]c(=O)o3)C[C@H](O)C2)cc1F` [Example 123, trans-5-[1-[2,5-difluoro-4-[[(3S,6R)-3-methyl-1,1-dioxo-6-phenyl-thiazinan-2-yl]methyl]phenyl]-3-hydroxy-cyclobutyl]-3H-1,3,4-oxadiazol-2-one], the IC50 stood at 1.8 nM. `C[C@H]1CC[C@H](c2ccccc2)S(=O)(=O)N1Cc1cc(F)c(C2(NCc3cnco3)COC2)cc1F` [Example 100, 3-[2,5-difluoro-4-[[(3S,6R)-3-methyl-1,1-dioxo-6-phenyl-thiazinan-2-yl]methyl]phenyl]-N-(oxazol-5-ylmethyl)oxetan-3-amine]: the IC50 was found to be 34.1 nM.

The compound `C[C@H]1CC[C@H](c2ccccc2)S(=O)(=O)N1Cc1cc(F)c(C2(NC(=O)c3cnn(C)c3)COC2)cc1F` (stereo in doubt) [Example 131, N-[3-[2,5-difluoro-4-[[(3S,6R)-3-methyl-1,1-dioxo-6-phenyl-thiazinan-2-yl]methyl]phenyl]oxetan-3-yl]-1-methyl-pyrazole-4-carboxamide] registered an IC50 of 208 nM. In turn, `C[C@H]1CC[C@H](c2ccccc2)S(=O)(=O)N1Cc1cc(F)c(C2(NCC3CCOC3)COC2)cc1F` (stereo partly drawn) [Example 136, 3-[2,5-difluoro-4-[[(3S,6R)-3-methyl-1,1-dioxo-6-phenyl-thiazinan-2-yl]methyl]phenyl]-N-(tetrahydrofuran-3-ylmethyl)oxetan-3-amine] gave an IC50 of 23.9 nM. For the compound `C[C@H]1CC[C@H](c2ccccc2)S(=O)(=O)N1Cc1ccc(C2(NCc3ccc(=O)[nH]c3)CCOCC2)cc1F` [Example 68, 5-[[[4-[3-fluoro-4-[[(3S,6R)-3-methyl-1,1-dioxo-6-phenyl-thiazinan-2-yl]methyl]phenyl]tetrahydropyran-4-yl]amino]methyl]-1H-pyridin-2-one], the 50% inhibitory concentration (IC50) was determined as 38.9 nM.

Consider `C[C@H]1CC[C@H](c2ccccc2)S(=O)(=O)N1Cc1cc(F)c(C2(c3nnc(CO)o3)CCOCC2)cc1F` [Example 57, [5-[4-[2,5-difluoro-4-[[(3S,6R)-3-methyl-1,1-dioxo-6-phenyl-thiazinan-2-yl]methyl]phenyl]tetrahydropyran-4-yl]-1,3,4-oxadiazol-2-yl]methanol], for which the IC50 was 28.2 nM. `C[C@H]1CC[C@H](c2ccccc2)S(=O)(=O)N1Cc1cc(F)c([C@]2(c3nnc[nH]3)C[C@](C)(O)C2)cc1F` [Example 145, trans 3-[2,5-difluoro-4-[[(3S,6R)-3-methyl-1,1-dioxo-6-phenyl-thiazinan-2-yl]methyl]phenyl]-1-methyl-3-(4H-1,2,4-triazol-3-yl)cyclobutanol]: the IC50 was determined as 7 nM. `C[C@H]1CC[C@H](c2ccccc2)S(=O)(=O)N1Cc1cc(F)c(C2(NCc3cocn3)CCOCC2)cc1F` [Example 75, 4-[2,5-difluoro-4-[[(3S,6R)-3-methyl-1,1-dioxo-6-phenyl-thiazinan-2-yl]methyl]phenyl]-N-(oxazol-4-ylmethyl)tetrahydropyran-4-amine]: the IC50 stood at 6.4 nM. On to `Cc1nnc(NCC2(c3ccc(CN4[C@@H](C)CC[C@H](c5ccccc5)S4(=O)=O)c(F)c3)CCOCC2)o1` [Example 41, N-[[4-[3-fluoro-4-[[(3S,6R)-3-methyl-1,1-dioxo-6-phenyl-thiazinan-2-yl]methyl]phenyl]tetrahydropyran-4-yl]methyl]-5-methyl-1,3,4-oxadiazol-2-amine], for which the IC50 came to 41.8 nM. On to `Cc1cc(CNC2(c3ccc(CN4[C@@H](C)CC[C@H](c5ccccc5)S4(=O)=O)c(F)c3)CCOCC2)no1` [Example 76, 4-[3-fluoro-4-[[(3S,6R)-3-methyl-1,1-dioxo-6-phenyl-thiazinan-2-yl]methyl]phenyl]-N-[(5-methylisoxazol-3-yl)methyl]tetrahydropyran-4-amine], for which the IC50 is 4.6 nM. The result for `Cc1nc(CNC2(c3ccc(CN4[C@@H](C)CC[C@H](c5ccccc5)S4(=O)=O)c(F)c3)CCOCC2)co1` [Example 78, 4-[3-fluoro-4-[[(3S,6R)-3-methyl-1,1-dioxo-6-phenyl-thiazinan-2-yl]methyl]phenyl]-N-[(2-methyloxazol-4-yl)methyl]tetrahydropyran-4-amine; hydrochloride] reads 30.2 nM.

Regarding `C[C@H]1CC[C@H](c2ccccc2)S(=O)(=O)N1Cc1ccc(C2(c3noc(CN(C)C)n3)CCOCC2)cc1F` [Example 28, 1-[3-[4-[3-fluoro-4-[[(3S,6R)-3-methyl-1,1-dioxo-6-phenyl-thiazinan-2-yl]methyl]phenyl]tetrahydropyran-4-yl]-1,2,4-oxadiazol-5-yl]-N,N-dimethyl-methanamine], the IC50 amounted to 465 nM.

The values above are taken from patent US10259808B2 (Genentech, Inc., priority 2015, dated 2019).
